In data set [1] the test system is LTC4. Kind of data set: LTC4 antagonism in isolated guinea-pig trachea (LTC4-induced contraction). In kind it is cell-based. The note with it: 5 min, test compound 10^-5 g/ml, LTC4 2×10^-8 g/ml, guinea-pig trachea; for inhibition at 10 µg/mL: Cavia porcellus, read-out: LTC4 antagonism. The protocol: (§1) (ii) LTC4 and LTD4 antagonisms in guinea-pig trachea
(§2) Antagonism for LTC4 and LTD4 were determined in isolated guinea-pig trachea prepared as spiral strip. 10 Tracheal preparations were suspended under 1 g tension in […] and they were incubated for 1 hr prior to use. Contractile responses to LTC4 (2×10^-8 g/ml) and LTD4 (2×10^-8 g/ml) were obtained after the maximal response to histamine (10^-4 M). Test compounds dissolved in 100% dimethyl sulfoxide were added to the organ baths (final concentration of 10^-5 g/ml) 5 min prior to LTC4 and LTD4 addition, and then contractile responses to LTC4 and LTD4 were compared with those of control which was obtained from a paired trachea in the absence of test compounds. LTC4 - and LTD4 -induced contractions were expressed as a percentage of the maximal response to histamine. The antagonism was determined as follows: Antagonism (%)=(1.0-% contraction in test/% contraction in control)×100

Data set [2] has as its system LTD4. Kind of data set: LTD4 antagonism in isolated guinea-pig trachea (LTD4-induced contraction). The format is cell-based. The note with it: Cavia porcellus, 5 min, test compound 10^-5 g/ml, LTD4 2×10^-8 g/ml. The protocol:
as §1, §2

In data set [3] the test system is antigen-induced anaphylactic bronchoconstriction. Kind of data set: Effect on anaphylactic bronchoconstriction in passively sensitized guinea-pig. In kind it is in vivo. The note with it: 2 mg/kg, i.v. The procedure:
(iii) Effect on anaphylactic bronchoconstriction in passively sensitized guinea-pig
Male guinea-pigs (350-450 g) were passively sensitized with intravenous (i.v.) injection of 0.125 ml rabbit anti-EA serum (Cappel Laboratories) 1 day preceding the experiment. […] The right jugular vein was cannulated for the administration of the all agents and trachea was cannulated to record total pulmonary resistance. Guinea-pigs were artificially ventilated by a small animal respirator (Shinano, Model SN-480-7) set at a stroke volume of 4-5 ml and a rate of 50 breaths per min. […] The increase in air overflow volume was expressed as a percentage of the maximum bronchoconstriction obtained by clamping off the trachea. Following surgical preparation, the animals were pretreated with indomethacin (1.0 mg/kg, 10 min), pyrilamine (2 mg/kg, 6 min) and propranolol (0.1 mg/kg, 5 min) prior to the EA challenge (0.1 or 10 mg/kg). All test compounds, 2 mg/kg in 3% Tween 80 or 3% PEG-400, were administered 1 min before the EA challenge. Inhibition (%) of bronchoconstriction was determined as follows Inhibition (%)=(1.0% -maximum bronchoconstriction in test/% maximum bronchoconstriction in control) ×100.
In the Table, the dose of EA was 10 mg/kg, and each compound was dissolved or suspended in 3% Tween 80.
In the Table, the dose of EA was 0.1 mg/kg.
*: PEG represents polyethylene glycol400.

Data set [4] concerns SRS-A. Description: SRS-A antagonism in guinea-pig ileum (SRS-A-induced contraction). The format is cell-based. The note with it: 1 min, test compound 5×10^-7 g/ml, isolated guinea-pig ileum; for inhibition at 0.5 µg/mL: Cavia porcellus. The protocol:
(i) SRS-A antagonism in quinea-pig ileum
SRS-A antagonism was determined against the contraction induced by SRS-A in isolated guinea-pig ileum. The SRS-A was prepared in accordance with the method of Brocklehurst (J. Physiol., 151, 416, 1960) and Kohno and Parker (J. Immunol., 125, 446, 1980). Adult male guinea-pigs (200-250 g) were sensitized with chick egg albumin (EA), 100 mg subcutaneously and 100 mg intraperitoneally. Three weeks later the animals were killed by a blow on the head and lungs were perfused free of blood with Tyrode solution passed through the right ventricle. Isolated lungs were chopped into pieces (1 mm^3) by a scissors in Tyrode solution and filtrated with gauze, and then 1.0-1.3 g of chopped lung fragments were distributed into individual tubes (9.7 ml of Tyrode solution/tube). EA solution (0.3 ml) at a 3×10^-4 g/ml final concentration was added to the tubes and incubated for 20 min at 37° C., and then the supernatant was used for the SRS-A antagonism.
Assay for SRS-A antagonism was performed as follows: Ileum preparations isolated from male guinea-pig (300-400 g) were suspended under 0.5 g tension in organ baths (5 ml) containing Tyrode solution maintained at 30° C. and gassed with 95% O2 +5% CO2. After the repeated responses to histamine (10^-7 g/ml) was established, the contractile response to SRS-A (0.5 ml) was carried out in the presence of 10^-6 M atropine and 10^-6 M pyrilamine. Test compounds dissolved in 100% dimethyl sulfoxide were added to the organ baths (final concentration of 5×10^-7 g/ml) 1 min prior to the SRS-A addition, and SRS-A-induced contractions were compared with those of control (SRS-A-induced contraction before the treatment). The SRS-A antagonism (%) =[1.0 - (SRS-A-induced contraction in test compound)/control]×100

Data set [5] relates to ddY strain male. Description: Acute toxicity test, method-(2), intraperitoneal injection. The format is in vivo, ddY strain male (4 weeks old). The note with it: 7 days. The protocol: The lethal ratio was determined in ddY strain male (4 weeks old) at 7 days after the intraperitoneal injection of test compounds.
Where [6] appears, read: EA 0.1 mg/kg, PEG (polyethylene glycol 400).

Molecules are shown by their SMILES.

As for `CC(C)n1ncc(NCc2ccc3c(c2)OCO3)c(Cl)c1=O` [compound 119], the inhibition at 10 µg/mL in data set [1] and in data set [2] was 100% each time. Further, the “Inhibition of anaphylactic bronchoconstriction” value in data set [3] (EA 0.1 mg/kg, Tween 80) came out at 33%.
Consider `CC(C)(C)n1ncc(NCc2ccc(C(=O)O)cc2)c(Cl)c1=O` [Compound No. 23, 4-chloro-5-(4-carboxybenzylamino)-2-t-butyl-3(2H)pyridazinone], for which the inhibition at 0.5 µg/mL in data set [4] is 18%.
With `CCn1ncc(NCc2ccc(C)cc2C)c(Cl)c1=O` [compound 79], the inhibition at 10 µg/mL in data set [2] is 100%. In data set [3] (EA 0.1 mg/kg, Tween 80), the “Inhibition of anaphylactic bronchoconstriction” value is listed as 61%. The “Lethal ratio (Death number/Experimental number)” value in data set [5] (200 mg/kg) was 0/2.
For the compound `CC(C)c1ccc(CNc2cnn(C(C)(C)C)c(=O)c2Cl)cc1` [Compound No. 5], in data set [1], the inhibition at 10 µg/mL worked out at 67%. Besides, the inhibition at 0.5 µg/mL in data set [4] amounted to 74%.
`CCOc1cccc(CNc2cnn(C(C)C)c(=O)c2Cl)c1` [Compound No. 89]: the inhibition at 10 µg/mL is 89% in data set [1] and 95% in data set [2]. The “Inhibition of anaphylactic bronchoconstriction” value in data set [3] (setting [6]) amounted to 79%. Besides, the “Lethal ratio (Death number/Experimental number)” value in data set [5] (200 mg/kg) is on record as 0/2; in data set [5] (400 mg/kg), 0/1.
As to `CCN1CCN(Cc2ccc(CNc3cnn(C(C)(C)C)c(=O)c3Cl)cc2)CC1` [compound 35], the LTC4 antagonism in data set [1] is recorded as 37%. Moreover, the inhibition at 0.5 µg/mL in data set [4] was 10%.
In the case of `CC(C)(C)n1ncc(NCc2ccc(CN3CCOCC3)cc2)c(Cl)c1=O` [compound 33], the inhibition at 10 µg/mL in data set [1] stood at 17%. The same compound showed an inhibition at 0.5 µg/mL in data set [4] of 41%.
With `CCn1ncc(NCc2cccc(C)c2)c(Cl)c1=O` [compound 75], the values for the inhibition at 10 µg/mL in data set [1] and in data set [2] were 100% and 90%, respectively. The “Inhibition of anaphylactic bronchoconstriction” value in data set [3] (EA 0.1 mg/kg, Tween 80) was 57%. Further, the “Lethal ratio (Death number/Experimental number)” value in data set [5] (100 mg/kg) is reported as 0/2.
In data set [4], `CC(C)(C)n1ncc(NCc2ccc3c(c2)OCO3)c(Cl)c1=O` [compound 18] displayed an inhibition at 0.5 µg/mL of 74%.
With `CCN1CCN(C(=O)c2ccc(CNc3cnn(C(C)(C)C)c(=O)c3Cl)cc2)CC1` [compound 42], in data set [4], the inhibition at 0.5 µg/mL came out at 14%.
For the compound `COc1ccc(CNc2cnn(C(C)(C)C)c(=O)c2Cl)cc1OC` [Compound No. 16], the inhibition at 10 µg/mL in data set [1] was 96%. The inhibition at 0.5 µg/mL in data set [4] worked out at 55%.
Take `CCN(CC)C(=O)c1ccc(CNc2cnn(C(C)(C)C)c(=O)c2Cl)cc1` [compound 38]: the inhibition at 0.5 µg/mL in data set [4] was determined as 31%.
Regarding `COc1ccc(CNc2cnn(C(C)C)c(=O)c2Cl)cc1` [Compound No. 87], the inhibition at 10 µg/mL in data set [2] turned out to be 100%. For the same compound, in data set [3] (EA 0.1 mg/kg, Tween 80), the “Inhibition of anaphylactic bronchoconstriction” value is 61%. For the same compound, the “Lethal ratio (Death number/Experimental number)” value in data set [5] (200 mg/kg) and in data set [5] (400 mg/kg) was 0/2 each time.
Compound `CN1CCN(C(=O)c2ccc(CNc3cnn(C(C)(C)C)c(=O)c3Cl)cc2)CC1` [compound 41] displayed an inhibition at 0.5 µg/mL in data set [4] of 15%.
On to `CCCOc1cc(CNc2cnn(CC)c(=O)c2Cl)ccc1OC` [Compound No. 105], for which the inhibition at 10 µg/mL in data set [1] and in data set [2] was 100% each time. In data set [3] (EA 0.1 mg/kg, Tween 80), the “Inhibition of anaphylactic bronchoconstriction” value came to 29%. The “Lethal ratio (Death number/Experimental number)” value in data set [5] (100 mg/kg) is 0/2.
Consider `CCOc1cccc(CNc2cnn(CC)c(=O)c2Cl)c1` [compound 88], for which the inhibition at 10 µg/mL in data set [1] was found to be 81%; in data set [2] it was 95%. Also, the “Inhibition of anaphylactic bronchoconstriction” value in data set [3] (EA 0.1 mg/kg, Tween 80) came to 45%. The “Lethal ratio (Death number/Experimental number)” value in data set [5] (200 mg/kg) and in data set [5] (400 mg/kg) was 0/2 throughout.
For `CCCn1ncc(NCc2ccc(OC)c(OC)c2)c(Cl)c1=O` [Compound No. 14, 4-Chloro-5-(3,4-dimethoxybenzylamino)-2-n-propyl-3-(2H)pyridazinone], the inhibition at 10 µg/mL was 100% in data set [1] and 36% in data set [2]. The “Inhibition of anaphylactic bronchoconstriction” value in data set [3] (EA 10 mg/kg, 3% Tween 80) is reported as 28%.
For `COc1ccc(CNc2cnn(C(C)C)c(=O)c2Cl)cc1OC` [Compound No. 15], in that order: 100%, 80% and 56%.
As for `CN1CCN(Cc2ccc(CNc3cnn(C(C)(C)C)c(=O)c3Cl)cc2)CC1` [compound 34], in data set [4], the inhibition at 0.5 µg/mL is 19%.
On to `COc1ccc(CNc2cnn(C(C)C)c(=O)c2Cl)c(OC)c1` [Compound No. 97, 4-chloro-5-(2,4-dimethoxybenzylamino)-2-i-propyl-3(2H)pyridazinone], for which the inhibition at 10 µg/mL in data set [1] and in data set [2] was 100% in each case. Moreover, the “Inhibition of anaphylactic bronchoconstriction” value in data set [3] (EA 0.1 mg/kg, Tween 80) is on record as 32%. Also, the “Lethal ratio (Death number/Experimental number)” value in data set [5] (200 mg/kg) is 0/2; in data set [5] (400 mg/kg) it was 0/1.
With `CCOc1cc(CNc2cnn(C(C)C)c(=O)c2Cl)ccc1OC` [compound 103], the inhibition at 10 µg/mL in data set [1] and in data set [2] was 100% in each case. For the same compound, the “Inhibition of anaphylactic bronchoconstriction” value in data set [3] (EA 0.1 mg/kg, Tween 80) turned out to be 76%. For the same compound, in data set [5] (200 mg/kg), the “Lethal ratio (Death number/Experimental number)” value is recorded as 0/2.
For `CN(C)c1ccc(CNc2cnn(C(C)(C)C)c(=O)c2Cl)cc1` [Compound No. 25, 4-Chloro-5-(4-dimethylaminobenzylamino)-2-t-butyl-3(2H)-pyridazinone], the SRS-A antagonism in data set [4] stood at 81%.
As for `CCCOc1cc(CNc2cnn(C(C)C)c(=O)c2Cl)ccc1OC` [Compound No. 106, 4-Chloro-5-(3-n-propoxy-4-methoxybenzylamino)-2-i-propyl-3(2H)pyridazinone], the inhibition at 10 µg/mL in data set [1] and in data set [2] was 100% throughout. Also, in data set [3] (EA 0.1 mg/kg, Tween 80), the “Inhibition of anaphylactic bronchoconstriction” value turned out to be 65%. Moreover, the entries for the “Lethal ratio (Death number/Experimental number)” value in data set [5] (200 mg/kg) and in data set [5] (400 mg/kg) were 0/2 and 0/1, respectively.
Consider `CCOc1ccc(CNc2cnn(C(C)C)c(=O)c2Cl)cc1` [compound 91], for which, in data set [2], the inhibition at 10 µg/mL is 93%. The “Inhibition of anaphylactic bronchoconstriction” value in data set [3] (setting [6]) came out at 73%. The “Lethal ratio (Death number/Experimental number)” value in data set [5] (100 mg/kg) is 0/2.
As to `CCCN(CCC)Cc1ccc(CN(C)c2cnn(C(C)(C)C)c(=O)c2Cl)cc1` [Compound No. 43, 4-Chloro-5-(4-di-n-propylaminomethyl-N-methylbenzylamino)-2-t-butyl-3(2H)pyridazinone], the inhibition at 10 µg/mL in data set [1] turned out to be 57%. In addition, the “Inhibition of anaphylactic bronchoconstriction” value in data set [3] (EA 10 mg/kg, 3% Tween 80) is reported as 14%.
Consider `COc1ccccc1CNc1cnn(C(C)C)c(=O)c1Cl` [compound 86], for which the inhibition at 10 µg/mL in data set [1] was 100%; in data set [2], 87%. Moreover, in data set [3] (EA 0.1 mg/kg, Tween 80), the “Inhibition of anaphylactic bronchoconstriction” value turned out to be 29%. Also, the “Lethal ratio (Death number/Experimental number)” value is recorded as 0/2 in data set [5] (200 mg/kg) and 0/1 in data set [5] (400 mg/kg).

Values taken from patent US5098900A, “3(2H)pyridazinone, process for its preparation and anti-allergic agent containing it” (Nissan Chemical Industries Ltd., priority 1984, dated 1992).
